Source: ChEMBL document CHEMBL1156163, “(18)F Labeled benzimidazole derivatives as potential radiotracer for positron emission tomography (PET) tumor imaging” (Bioorg Med Chem, 2010)
Values belong to the molecule of their own block, whether it stands above or below them.

Assays:
[1] = Ratio of drug uptake in tumor to blood of mouse S180 cells xenografted Kunming mouse at 10 to 20 uCi, iv after 120 mins by gamma counting; type: ADME, organism-based, CCRF S-180; details: tumour, 2 h
[2] = Ratio of drug uptake in tumor to muscle of mouse S180 cells xenografted Kunming mouse at 10 to 20 uCi, iv after 120 mins by gamma counting; type: ADME, organism-based, CCRF S-180; details: in vivo, 2 h
[3] = Ratio of drug uptake in tumor to brain of mouse S180 cells xenografted Kunming mouse at 10 to 20 uCi, iv after 120 mins by gamma counting; type: ADME, organism-based, CCRF S-180; details: in vivo, 2 h
Heart [4] = test: Biodistribution in mouse S180 cells xenografted Kunming mouse heart at 10 to 20 uCi, iv after 5 mins by gamma counting; type: ADME, organism-based, CCRF S-180; details: in vivo
Liver [5] = test: Biodistribution in mouse S180 cells xenografted Kunming mouse liver at 10 to 20 uCi, iv after 5 mins by gamma counting; type: ADME, organism-based, CCRF S-180; details: in vivo
Pancreas [6] = test: Biodistribution in mouse S180 cells xenografted Kunming mouse pancreas at 10 to 20 uCi, iv after 5 mins by gamma counting; type: ADME, organism-based, CCRF S-180; details: in vivo
Kidney [7] = test: Biodistribution in mouse S180 cells xenografted Kunming mouse kidney at 10 to 20 uCi, iv after 5 mins by gamma counting; type: ADME, organism-based, CCRF S-180; details: in vivo
Muscle tissue [8] = test: Biodistribution in mouse S180 cells xenografted Kunming mouse muscle at 10 to 20 uCi, iv after 5 mins by gamma counting; type: ADME, organism-based, CCRF S-180; details: in vivo
Blood [9] = test: Biodistribution in mouse S180 cells xenografted Kunming mouse blood at 10 to 20 uCi, iv after 5 mins by gamma counting; type: ADME, organism-based, CCRF S-180; details: in vivo
[10] = Biodistribution in mouse S180 cells xenografted Kunming mouse tumor at 10 to 20 uCi, iv after 5 mins by gamma counting; type: ADME, organism-based, Neoplasm, CCRF S-180; details: in vivo
[11] = Ratio of drug uptake in tumor to muscle of mouse S180 cells xenografted Kunming mouse at 10 to 20 uCi, iv after 5 mins by gamma counting; type: ADME, organism-based, CCRF S-180; details: in vivo
Heart [12] = test: Biodistribution in mouse S180 cells xenografted Kunming mouse heart at 10 to 20 uCi, iv after 15 mins by gamma counting; type: ADME, organism-based, CCRF S-180; details: in vivo, 0.25 h
Liver [13] = test: Biodistribution in mouse S180 cells xenografted Kunming mouse liver at 10 to 20 uCi, iv after 15 mins by gamma counting; type: ADME, organism-based, CCRF S-180; details: in vivo, 0.25 h
Pancreas [14] = test: Biodistribution in mouse S180 cells xenografted Kunming mouse pancreas at 10 to 20 uCi, iv after 15 mins by gamma counting; type: ADME, organism-based, CCRF S-180; details: in vivo, 0.25 h
Kidney [15] = test: Biodistribution in mouse S180 cells xenografted Kunming mouse kidney at 10 to 20 uCi, iv after 15 mins by gamma counting; type: ADME, organism-based, CCRF S-180; details: in vivo, 0.25 h
Muscle tissue [16] = test: Biodistribution in mouse S180 cells xenografted Kunming mouse muscle at 10 to 20 uCi, iv after 15 mins by gamma counting; type: ADME, organism-based, CCRF S-180; details: in vivo, 0.25 h
Brain [17] = test: Biodistribution in mouse S180 cells xenografted Kunming mouse brain at 10 to 20 uCi, iv after 15 mins by gamma counting; type: ADME, organism-based, CCRF S-180; details: in vivo, 0.25 h
[18] = Biodistribution in mouse S180 cells xenografted Kunming mouse tumor at 10 to 20 uCi, iv after 15 mins by gamma counting; type: ADME, organism-based, Neoplasm, CCRF S-180; details: in vivo, 0.25 h
[19] = Ratio of drug uptake in tumor to blood of mouse S180 cells xenografted Kunming mouse at 10 to 20 uCi, iv after 15 mins by gamma counting; type: ADME, organism-based, CCRF S-180; details: tumour, 0.25 h
[20] = Ratio of drug uptake in tumor to brain of mouse S180 cells xenografted Kunming mouse at 10 to 20 uCi, iv after 15 mins by gamma counting; type: ADME, organism-based, CCRF S-180; details: in vivo, 0.25 h
Heart [21] = test: Biodistribution in mouse S180 cells xenografted Kunming mouse heart at 10 to 20 uCi, iv after 30 mins by gamma counting; type: ADME, organism-based, CCRF S-180; details: in vivo, 0.5 h
Liver [22] = test: Biodistribution in mouse S180 cells xenografted Kunming mouse liver at 10 to 20 uCi, iv after 30 mins by gamma counting; type: ADME, organism-based, CCRF S-180; details: in vivo, 0.5 h
Pancreas [23] = test: Biodistribution in mouse S180 cells xenografted Kunming mouse pancreas at 10 to 20 uCi, iv after 30 mins by gamma counting; type: ADME, organism-based, CCRF S-180; details: in vivo, 0.5 h
Lung [24] = test: Biodistribution in mouse S180 cells xenografted Kunming mouse lung at 10 to 20 uCi, iv after 30 mins by gamma counting; type: ADME, organism-based, CCRF S-180; details: in vivo, 0.5 h
Blood [25] = test: Biodistribution in mouse S180 cells xenografted Kunming mouse blood at 10 to 20 uCi, iv after 30 mins by gamma counting; type: ADME, organism-based, CCRF S-180; details: in vivo, 0.5 h
Brain [26] = test: Biodistribution in mouse S180 cells xenografted Kunming mouse brain at 10 to 20 uCi, iv after 30 mins by gamma counting; type: ADME, organism-based, CCRF S-180; details: in vivo, 0.5 h
[27] = Biodistribution in mouse S180 cells xenografted Kunming mouse tumor at 10 to 20 uCi, iv after 30 mins by gamma counting; type: ADME, organism-based, Neoplasm, CCRF S-180; details: in vivo, 0.5 h
[28] = Ratio of drug uptake in tumor to muscle of mouse S180 cells xenografted Kunming mouse at 10 to 20 uCi, iv after 30 mins by gamma counting; type: ADME, organism-based, CCRF S-180; details: in vivo, 0.5 h
[29] = Ratio of drug uptake in tumor to brain of mouse S180 cells xenografted Kunming mouse at 10 to 20 uCi, iv after 30 mins by gamma counting; type: ADME, organism-based, CCRF S-180; details: in vivo, 0.5 h
Liver [30] = test: Biodistribution in mouse S180 cells xenografted Kunming mouse liver at 10 to 20 uCi, iv after 60 mins by gamma counting; type: ADME, organism-based, CCRF S-180; details: in vivo, 1 h
Lung [31] = test: Biodistribution in mouse S180 cells xenografted Kunming mouse lung at 10 to 20 uCi, iv after 60 mins by gamma counting; type: ADME, organism-based, CCRF S-180; details: in vivo, 1 h
Kidney [32] = test: Biodistribution in mouse S180 cells xenografted Kunming mouse kidney at 10 to 20 uCi, iv after 60 mins by gamma counting; type: ADME, organism-based, CCRF S-180; details: in vivo, 1 h
[33] = Biodistribution in mouse S180 cells xenografted Kunming mouse tumor at 10 to 20 uCi, iv after 60 mins by gamma counting; type: ADME, organism-based, Neoplasm, CCRF S-180; details: in vivo, 1 h
[34] = Ratio of drug uptake in tumor to blood of mouse S180 cells xenografted Kunming mouse at 10 to 20 uCi, iv after 60 mins by gamma counting; type: ADME, organism-based, CCRF S-180; details: tumour, 1 h
[35] = Ratio of drug uptake in tumor to brain of mouse S180 cells xenografted Kunming mouse at 10 to 20 uCi, iv after 60 mins by gamma counting; type: ADME, organism-based, CCRF S-180; details: in vivo, 1 h
Heart [36] = test: Biodistribution in mouse S180 cells xenografted Kunming mouse heart at 10 to 20 uCi, iv after 120 mins by gamma counting; type: ADME, organism-based, CCRF S-180; details: in vivo, 2 h
Liver [37] = test: Biodistribution in mouse S180 cells xenografted Kunming mouse liver at 10 to 20 uCi, iv after 120 mins by gamma counting; type: ADME, organism-based, CCRF S-180; details: in vivo, 2 h
Pancreas [38] = test: Biodistribution in mouse S180 cells xenografted Kunming mouse pancreas at 10 to 20 uCi, iv after 120 mins by gamma counting; type: ADME, organism-based, CCRF S-180; details: in vivo, 2 h
Lung [39] = test: Biodistribution in mouse S180 cells xenografted Kunming mouse lung at 10 to 20 uCi, iv after 120 mins by gamma counting; type: ADME, organism-based, CCRF S-180; details: in vivo, 2 h
Kidney [40] = test: Biodistribution in mouse S180 cells xenografted Kunming mouse kidney at 10 to 20 uCi, iv after 120 mins by gamma counting; type: ADME, organism-based, CCRF S-180; details: in vivo, 2 h
Muscle tissue [41] = test: Biodistribution in mouse S180 cells xenografted Kunming mouse muscle at 10 to 20 uCi, iv after 120 mins by gamma counting; type: ADME, organism-based, CCRF S-180; details: in vivo, 2 h
Blood [42] = test: Biodistribution in mouse S180 cells xenografted Kunming mouse blood at 10 to 20 uCi, iv after 120 mins by gamma counting; type: ADME, organism-based, CCRF S-180; details: in vivo, 2 h
Brain [43] = test: Biodistribution in mouse S180 cells xenografted Kunming mouse brain at 10 to 20 uCi, iv after 120 mins by gamma counting; type: ADME, organism-based, CCRF S-180; details: in vivo, 2 h

Ratio [1]: 1.92
Ratio [2]: 1.02
Ratio [3]: 2.95
Drug uptake (Heart [4]): 5.89 % ID/g
Drug uptake (Liver [5]): 7.67 % ID/g
Drug uptake (Pancreas [6]): 0.93 % ID/g
Drug uptake (Kidney [7]): 6.58 % ID/g
Drug uptake (Muscle tissue [8]): 2.88 % ID/g
Drug uptake (Blood [9]): 6.81 % ID/g
Drug uptake [10]: 2.08 % ID/g
Ratio [11]: 0.72
Drug uptake (Heart [12]): 3.41 % ID/g
Drug uptake (Liver [13]): 5.6 % ID/g
Drug uptake (Pancreas [14]): 0.22 % ID/g
Drug uptake (Kidney [15]): 6.79 % ID/g
Drug uptake (Muscle tissue [16]): 3.34 % ID/g
Drug uptake (Brain [17]): 1.03 % ID/g
Drug uptake [18]: 2.5 % ID/g
Ratio [19]: 0.76
Ratio [20]: 2.43
Drug uptake (Heart [21]): 3.27 % ID/g
Drug uptake (Liver [22]): 4.23 % ID/g
Drug uptake (Pancreas [23]): 0.11 % ID/g
Drug uptake (Lung [24]): 8.57 % ID/g
Drug uptake (Blood [25]): 3.23 % ID/g
Drug uptake (Brain [26]): 1.29 % ID/g
Drug uptake [27]: 3.28 % ID/g
Ratio [28]: 0.62
Ratio [29]: 2.54
Drug uptake (Liver [30]): 3.56 % ID/g
Drug uptake (Lung [31]): 4.7 % ID/g
Drug uptake (Kidney [32]): 3.75 % ID/g
Drug uptake [33]: 2.75 % ID/g
Ratio [34]: 1.1
Ratio [35]: 2.92
Drug uptake (Heart [36]): 0.94 % ID/g
Drug uptake (Liver [37]): 1.22 % ID/g
Drug uptake (Pancreas [38]): 0.09 % ID/g
Drug uptake (Lung [39]): 1.55 % ID/g
Drug uptake (Kidney [40]): 1.29 % ID/g
Drug uptake (Muscle tissue [41]): 2.1 % ID/g
Drug uptake (Blood [42]): 1.12 % ID/g
Drug uptake (Brain [43]): 0.73 % ID/g
Compound: N[C@@H](Cc1ccc(OCC[18F])cc1)C(=O)O [FLORETYROSINE F18]

Ratio [1]: 15.85
Ratio [2]: 2.2
Ratio [3]: 1.33
Drug uptake (Heart [4]): 2.6 % ID/g
Drug uptake (Liver [5]): 1.35 % ID/g
Drug uptake (Pancreas [6]): 1.31 % ID/g
Drug uptake (Kidney [7]): 2.16 % ID/g
Drug uptake (Muscle tissue [8]): 1.56 % ID/g
Drug uptake (Blood [9]): 1.09 % ID/g
Drug uptake [10]: 1.27 % ID/g
Ratio [11]: 0.81
Drug uptake (Heart [12]): 2.5 % ID/g
Drug uptake (Liver [13]): 0.47 % ID/g
Drug uptake (Pancreas [14]): 0.95 % ID/g
Drug uptake (Kidney [15]): 1.04 % ID/g
Drug uptake (Muscle tissue [16]): 1.14 % ID/g
Drug uptake (Brain [17]): 2.63 % ID/g
Drug uptake [18]: 1.56 % ID/g
Ratio [19]: 3.42
Ratio [20]: 0.59
Drug uptake (Heart [21]): 2.69 % ID/g
Drug uptake (Liver [22]): 0.23 % ID/g
Drug uptake (Pancreas [23]): 0.9 % ID/g
Drug uptake (Lung [24]): 0.64 % ID/g
Drug uptake (Blood [25]): 0.16 % ID/g
Drug uptake (Brain [26]): 3.07 % ID/g
Drug uptake [27]: 1.86 % ID/g
Ratio [28]: 1.75
Ratio [29]: 0.61
Drug uptake (Liver [30]): 0.22 % ID/g
Drug uptake (Lung [31]): 0.57 % ID/g
Drug uptake (Kidney [32]): 0.54 % ID/g
Drug uptake [33]: 2.16 % ID/g
Ratio [34]: 19.47
Ratio [35]: 1.02
Drug uptake (Heart [36]): 6.27 % ID/g
Drug uptake (Liver [37]): 0.2 % ID/g
Drug uptake (Pancreas [38]): 0.78 % ID/g
Drug uptake (Lung [39]): 0.52 % ID/g
Drug uptake (Kidney [40]): 0.25 % ID/g
Drug uptake (Muscle tissue [41]): 0.78 % ID/g
Drug uptake (Blood [42]): 0.11 % ID/g
Drug uptake (Brain [43]): 1.28 % ID/g
Compound: OC[C@H]1O[C@@H](O)[C@H]([18F])[C@@H](O)[C@@H]1O [FLUDEOXYGLUCOSE-F18]
